Measured values: US9586928B2 (The Scripps Research Institute, priority 2011, dated 2017)

How the values were obtained:
RORγ = target: T1, RORγ (Homo sapiens, UniProt P51449); assay: Gal4-RORγ LBD / UAS luciferase cotransfection assay; assay type: cell-based; settings: 10 μM
T1 construct: expressed in transfected cells; host or cells: HEK293T
T1 sequence (P51449 269-508 limits assumed): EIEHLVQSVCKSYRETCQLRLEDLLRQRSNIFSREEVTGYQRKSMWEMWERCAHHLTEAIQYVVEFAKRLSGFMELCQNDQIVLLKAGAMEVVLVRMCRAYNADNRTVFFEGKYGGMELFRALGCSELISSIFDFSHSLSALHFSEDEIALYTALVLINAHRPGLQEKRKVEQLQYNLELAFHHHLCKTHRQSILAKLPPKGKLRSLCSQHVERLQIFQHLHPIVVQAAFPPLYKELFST

RORα = target: T2, RORα (Homo sapiens, UniProt P35398); assay: Gal4-RORα LBD / UAS luciferase cotransfection assay; assay type: cell-based; settings: 10 μM
T2 construct: expressed in transfected cells; host or cells: HEK293T
T2 sequence (P35398 272-510 limits assumed): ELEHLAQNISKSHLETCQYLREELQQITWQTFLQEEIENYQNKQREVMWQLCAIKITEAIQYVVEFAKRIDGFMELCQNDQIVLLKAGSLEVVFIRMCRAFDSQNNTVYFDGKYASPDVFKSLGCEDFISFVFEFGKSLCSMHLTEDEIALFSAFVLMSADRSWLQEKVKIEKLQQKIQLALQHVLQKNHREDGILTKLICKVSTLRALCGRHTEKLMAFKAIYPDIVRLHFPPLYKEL

LXR = target: T3, LXR (Homo sapiens, UniProt Q13133); assay: Gal4-LXRα / UAS luciferase cotransfection assay; assay type: cell-based; settings: 10 μM
T3 sequence (Q13133 209-447 limits assumed): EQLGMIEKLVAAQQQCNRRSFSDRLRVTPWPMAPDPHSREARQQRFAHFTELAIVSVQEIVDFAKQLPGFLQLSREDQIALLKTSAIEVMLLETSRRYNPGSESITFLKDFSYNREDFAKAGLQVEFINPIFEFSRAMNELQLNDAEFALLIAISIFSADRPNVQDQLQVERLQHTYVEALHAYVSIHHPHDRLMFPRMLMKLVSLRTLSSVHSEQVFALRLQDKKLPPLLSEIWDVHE

VP16 = assay: Gal4 DBD-VP16 / UAS luciferase control assay; assay type: cell-based; settings: 10 μM
GST-RORγ = target: T4, GST-RORγ (Homo sapiens, UniProt P51449); assay: RORγ scintillation proximity (SPA) radioligand binding assay, displacement of [3H]-T0901317; settings: 1 μM compound (Table 2D); read-out: RORγ SPA % bound = % radiolabel bound
T4 construct: 1 μg of GST-RORγ-LBD, 5 nM of [3H]T1317 as radioligand
T4 sequence (P51449 269-508 limits assumed): T1 sequence (P51449 269-508 limits assumed)

Row | SMILES | remaining activity at 1 µM (GST-RORγ) | RORγ repression, fold change over DMSO (RORγ) | RORα repression, fold change over DMSO (RORα) | LXR activation, fold change over DMSO (LXR) | VP16 repression, fold change over DMSO (VP16)
1 | OCCN1CCN(Cc2ccc(-c3ccc(C(O)(C(F)(F)F)C(F)(F)F)cc3)cc2)CC1 [Compound 2, 1,1,1,3,3,3-Hexafluoro-2-(4′-((4-(2-hydroxyethyl)piperazin-1-yl)methyl)-[1,1′-biphenyl]-4-yl)propan-2-ol] | – | 0.9 fold change over DMSO | 1.3 fold change over DMSO | 1.1 fold change over DMSO | 0.9 fold change over DMSO
2 | OC(c1ccc(-c2ccc(CN3CCN(CCc4ccccc4)CC3)cc2)cc1)(C(F)(F)F)C(F)(F)F [Compound 11, 1,1,1,3,3,3-Hexafluoro-2-(4′-((4-phenethylpiperazin-1-yl)methyl)-[1,1′-biphenyl]-4-yl)propan-2-ol] | – | 0.5 fold change over DMSO | 0.5 fold change over DMSO | 1 fold change over DMSO | 0.35 fold change over DMSO
3 | OC(c1ccc(-c2ccc(CN3CCN(c4ccccc4)CC3)cc2)cc1)(C(F)(F)F)C(F)(F)F [Compound 14, 1,1,1,3,3,3-Hexafluoro-2-(4′-((4-phenylpiperazin-1-yl)methyl)-[1,1′-biphenyl]-4-yl)propan-2-ol] | – | 0.05 fold change over DMSO | 0.4 fold change over DMSO | 5 fold change over DMSO | 0.4 fold change over DMSO
4 | O=C(C1CCCO1)N1CCN(Cc2ccc(-c3ccc(C(O)(C(F)(F)F)C(F)(F)F)cc3)cc2)CC1 (stereo not drawn) [Compound 16, (4-((4′-(1,1,1,3,3,3-Hexafluoro-2-hydroxypropan-2-yl)-[1,1′-biphenyl]-4-yl)methyl)piperazin-1-yl)(tetrahydrofuran-2-yl)methanone] | – | 0.6 fold change over DMSO | 0.8 fold change over DMSO | 1.4 fold change over DMSO | 0.6 fold change over DMSO
5 | OC(c1ccc(-c2ccc(CN3CCN(Cc4cccs4)CC3)cc2)cc1)(C(F)(F)F)C(F)(F)F [Compound 19, 1,1,1,3,3,3-Hexafluoro-2-(4′-((4-(thiophen-2-ylmethyl)piperazin-1-yl)methyl)-[1,1′-biphenyl]-4-yl)propan-2-ol] | – | 0.5 fold change over DMSO | 0.75 fold change over DMSO | 1.5 fold change over DMSO | 0.4 fold change over DMSO
6 | OC(c1ccc(-c2ccc(CN3CCN(Cc4cc5cc(F)ccc5[nH]4)CC3)cc2)cc1)(C(F)(F)F)C(F)(F)F [Compound 20, 1,1,1,3,3,3-Hexafluoro-2-(4′-((4-((5-fluoro-1H-indol-2-yl)methyl)piperazin-1-yl)methyl)-[1,1′-biphenyl]-4-yl)propan-2-ol] | – | 0.05 fold change over DMSO | 0.1 fold change over DMSO | 2.5 fold change over DMSO | 0.1 fold change over DMSO
7 | OC(c1ccc(-c2ccc(CN3CCN(CC4COc5ccccc5O4)CC3)cc2)cc1)(C(F)(F)F)C(F)(F)F (stereo not drawn) [Compound 21, 2-(4′-((4-((2,3-Dihydrobenzo[b][1,4]dioxin-2-yl)methyl)piperazin-1-yl)methyl)-[1,1′-biphenyl]-4-yl)-1,1,1,3,3,3-hexafluoropropan-2-ol] | – | 0.35 fold change over DMSO | 0.45 fold change over DMSO | 0.7 fold change over DMSO | 0.35 fold change over DMSO
8 | CCCNC(=O)N1CCN(Cc2ccc(-c3ccc(C(O)(C(F)(F)F)C(F)(F)F)cc3)cc2)CC1 [Compound 22, 4-((4′-(1,1,1,3,3,3-Hexafluoro-2-hydroxypropan-2-yl)-[1,1′-biphenyl]-4-yl)methyl)-N-propylpiperazine-1-carboxamide] | – | 0.4 fold change over DMSO | 0.5 fold change over DMSO | 1.8 fold change over DMSO | 0.4 fold change over DMSO
9 | CCCCC(=O)N1CCN(Cc2ccc(-c3ccc(C(O)(C(F)(F)F)C(F)(F)F)cc3)cc2)CC1 [Example 158, 1-(4-((4′-(1,1,1,3,3,3-hexafluoro-2-hydroxypropan-2-yl)-[1,1′-biphenyl]-4-yl)methyl)piperazin-1-yl)pentan-1-one] | 10% | – | – | – | –
10 | O=C(Cc1c[nH]cn1)N1CCN(Cc2ccc(-c3ccc(C(O)(C(F)(F)F)C(F)(F)F)cc3)cc2)CC1 [Example 159, 1-(4-((4′-(1,1,1,3,3,3-hexafluoro-2-hydroxypropan-2-yl)-[1,1′-biphenyl]-4-yl)methyl)piperazin-1-yl)-2-(1H-imidazol-4-yl)ethanone] | 80% | – | – | – | –
11 | OC(c1ccc(-c2ccc3c(c2)CCN3C2CCN(Cc3ccncc3)CC2)cc1)(C(F)(F)F)C(F)(F)F [Example 162, 1,1,1,3,3,3-hexafluoro-2-(4-(1-(1-(pyridin-4-ylmethyl)piperidin-4-yl)indolin-5-yl)phenyl)propan-2-ol] | 15% | – | – | – | –
12 | OC(c1ccc(-c2cccc(CC3CCCN(Cc4ccncc4)C3)c2)cc1)(C(F)(F)F)C(F)(F)F (stereo not drawn) [Example 163, 1,1,1,3,3,3-hexafluoro-2-(3′-((1-(pyridin-4-ylmethyl)piperidin-3-yl)methyl)-[1,1′-biphenyl]-4-yl)propan-2-ol] | 10% | – | – | – | –

The next lines start with results.

Row | remaining activity at 1 µM (GST-RORγ) | SMILES | RORγ repression, fold change over DMSO (RORγ) | RORα repression, fold change over DMSO (RORα) | LXR activation, fold change over DMSO (LXR) | VP16 repression, fold change over DMSO (VP16)
13 | 74% | CC(Cc1ccc(-c2ccc(C(O)(C(F)(F)F)C(F)(F)F)cc2)cc1)N1CCN(Cc2ccncc2)CC1 (stereo not drawn) [Example 143, 1,1,1,3,3,3-hexafluoro-2-(4′-(2-(4-(pyridin-4-ylmethyl)piperazin-1-yl)propyl)-[1,1′-biphenyl]-4-yl)propan-2-ol] | – | – | – | –
14 | 61% | OC(c1ccc(-c2ccc(CCN3CCN(Cc4ccncc4)CC3)cc2)cc1)(C(F)(F)F)C(F)(F)F [Example 144, 1,1,1,3,3,3-hexafluoro-2-(4′-(2-(4-(pyridin-4-ylmethyl)piperazin-1-yl)ethyl)-[1,1′-biphenyl]-4-yl)propan-2-ol] | – | – | – | –
15 | 90% | OC(c1ccc(-c2ccc(CN3CCN(Cc4ccc5cc[nH]c5c4)CC3)cc2)cc1)(C(F)(F)F)C(F)(F)F [Example 154, 2-(4′-((4-((1H-indol-6-yl)methyl)piperazin-1-yl)methyl)-[1,1′-biphenyl]-4-yl)-1,1,1,3,3,3-hexafluoropropan-2-ol] | – | – | – | –
16 | 100% | OC(c1ccc(-c2ccc(CN3CCN(Cc4ccc5nc[nH]c5c4)CC3)cc2)cc1)(C(F)(F)F)C(F)(F)F [Example 155, 2-(4′-((4-((1H-benzo[d]imidazol-6-yl)methyl)piperazin-1-yl)methyl)-[1,1′-biphenyl]-4-yl)-1,1,1,3,3,3-hexafluoropropan-2-ol] | – | – | – | –
17 | 75% | CC(C)Oc1cc(C(O)(C(F)(F)F)C(F)(F)F)ccc1-c1ccc(CN2CCN(Cc3ccncc3)CC2)cc1 [Example 156, 1,1,1,3,3,3-hexafluoro-2-(2-isopropoxy-4′-((4-(pyridin-4-ylmethyl)piperazin-1-yl)methyl)-[1,1′-biphenyl]-4-yl)propan-2-ol] | – | – | – | –
18 | 20% | CC(C)CCN1CCN(Cc2ccc(-c3ccc(C(O)(C(F)(F)F)C(F)(F)F)cc3)cc2)CC1 [Example 157, 1,1,1,3,3,3-hexafluoro-2-(4′-((4-isopentylpiperazin-1-yl)methyl)-[1,1′-biphenyl]-4-yl)propan-2-ol] | – | – | – | –
19 | 77% | OC(c1ccc(-c2ccc(CN3CCN(Cc4ccncc4)CC3)cc2C(F)(F)F)cc1)(C(F)(F)F)C(F)(F)F [Example 160, 1,1,1,33,33-hexafluoro-2-(4′-((4-(pyridin-4-ylmethyl)piperazin-1-yl)methyl)-2′-(trifluoromethyl)-[1,1′-biphenyl]-4-yl)propan-2-ol] | – | – | – | –
20 | 95% | N#Cc1cc(-c2ccc(C(O)(C(F)(F)F)C(F)(F)F)cc2)ccc1CN1CCN(Cc2ccncc2)CC1 [Example 161, 4′-(1,1,1,3,3,3-hexafluoro-2-hydroxypropan-2-yl)-4-((4-(pyridin-4-ylmethyl)piperazin-1-yl)methyl)-[1,1′-biphenyl]-3-carbonitrile] | – | – | – | –
21 | 10% | OC(c1ccc(-c2ccc(CC3CCN(Cc4ccncc4)CC3)cc2)cc1)(C(F)(F)F)C(F)(F)F [Example 164, 1,1,1,3,3,3-hexafluoro-2-(4′-((1-(pyridin-4-ylmethyl)piperidin-4-yl)methyl)-[1,1′-biphenyl]-4-yl)propan-2-ol] | – | – | – | –
